{
  "source": "patent US9771563B2",
  "about": "“Chemical approaches for generation of induced pluripotent stem cells” (The Scripps Research Institute, priority 2008, dated 2017)",
  "key": {"[1]": {"test_system": "mouse embryonic fibroblasts (129 or OG2 MEFs)", "experiment": "Screen for iPSC generation from MEFs transduced with Oct4/Klf4 (OK)", "format": "cell-based", "details": "for hit in second synergist screen: OK-transduced MEFs, 1 μM BIX in medium, compound 0.5-2 μM, not followed up", "protocol": "Unmodified MEFs derived from E13-14 embryos of the 129 mice were used for the initial screen. MEFs were plated on Matrigel at 3.5×10^4 cells/well of a 6-well plate and transduced with OK (retroviral vectors expressing Oct4 and Klf4) alone. Within 14-21 days, treated cells were assessed for the appearance of colonies that had the characteristic embryonic stem cell (ESC) colony morphology and were positive for the pluripotency marker alkaline phosphatase (ALP). Such OK-transduced cells generated only a few small non-compact colonies, which were weakly positive for ALP expression. These colonies initially appeared within 21 days after viral transduction and were difficult to expand. Therefore, such assay system offered a clean background for the identification of small molecules having desirable reprogramming inducing activity. Using this system, compounds from a library of around 2000 known small molecules (see Experimental Procedures below) were screened and were identified as hits when they induced the appearance of ESC colonies that were strongly positive for ALP within 14-21 days after treatment. This image-based method provided a more accurate assessment of reprogramming as compared to homogenous reporter-based assay. BIX appeared to have the strongest effect with reproducible induction of more than 1-2 compact ESC-like colonies with high ALP expression. We observed that when MEFs were treated with BIX after OK viral transduction, compact colonies with strong ALP expression could be readily detected within approximately 14-21 days. These cells were also positive for Nanog, Oct4 and SSEA-1 expression. […] However, the reprogramming efficiency in MEFs transduced with OK and treated with BIX was still low, about 2 colonies/3.5×10^4 cells, in comparison to the four factor-induced reprogramming of MEFs or the OK/BIX NPC reprogramming (Shi, Y. et al., Cell Stem Cell, 2:525-528 (2008)). Therefore, we conducted a second screen using a similar protocol, but where BIX was added to the basal media after OK viral transduction. This provided a more permissive platform to identify new small molecules that could further improve reprogramming efficiency. More importantly, this second screen could facilitate discovery of small molecules that impact reprogramming in a more specific manner, for example by acting on signal transduction pathways rather than on histone or DNA modifying enzymes. In this second screen, we again assayed the library of around 2000 known small molecules (see Experimental Procedures), and confirmed two compounds that were able to act in a synergistic manner with BIX to improve reprogramming based on the criteria of the screen. […] Therefore, RG108 was not pursued further for this study. Instead, we focused our phenotypic and functional characterization on another small molecule that was identified in the second screen, BayK, an L-calcium channel agonist. […] Therefore, BayK might play a more specific role in the reprogramming process. When 129 MEFs were transduced with empty retrovirus (negative control); no colonies observed. When 129 MEFs were transduced with OK without small molecules; few small flattened colonies with weak ALP expression present. […] When OK-transduced MEFs were treated with BIX in combination with BayK, a significant increase in the number of ALP^+ colonies that closely resemble the mESC morphology could be observed (˜7 colonies) as compared to OK-transduced MEFs treated with BIX alone (˜2 colonies).\nPrimary 12952/SvPasCrlf (primary screen) or ROSA26^+/−/OG2^+/− (secondary screen) MEFs were plated onto Matrigel (1:50; BD Biosciences, Bedford, Mass.) coated dishes at a density of 3.5×10^4 cells per well of a 6-well plate. Twenty-four hours later, these cells were transduced overnight with defined retroviruses at 37° C., 5% CO2. […] (all products were from Invitrogen, Carlsbad, Calif., except where mentioned). […]"}, "[2]": {"test_system": "primary OG2 neural progenitor cells", "experiment": "iPS cell induction from neural progenitor cells after retroviral transduction", "format": "cell-based, mouse", "details": "applied at late stage of reprogramming (after Oct4-GFP activation)", "protocol": "The reporter neural progenitor cells were generated using a well established protocol by differentiating the Oct4-GiP mESCs grown in monolayer on gelatin in a chemically defined medium/CDM condition in the absence of serum and other growth factors/cytokines at low cell density for eight days, followed by neurophere formation and subsequent serial passaging in single cells in neural cell expansion media supplemented with 10 ng/ml of bFGF and EGF in monolayer for over six passages/24 days. The resulting neural progenitor cells were homogenous by cell morphology and neural marker expression, and were confirmed to be GFP negative and puromycin sensitive. Such neural progenitor cells plated in monolayer in conventional mESC growth media were transduced with combinations of four, three, or two of the four factors, followed by treating the transduced cells with individual small molecules from a small known drug collection in a typical 6-well format. The compound treatment and culture were continued for additional ten days before puromycin was added. The number of green and puro-resistant colonies was counted at day 14. In comparison to the only four-gene transduced neural cells as the positive control, compound conditions that generated more green colonies than the corresponding gene-only conditions were picked as primary hits. To further confirm these primary hit conditions, we chose to use a late passage of mouse CNS neural progenitor cells (Do, J. T. et al., Stem Cells 25, 1013-1020 (2007)) that were derived from fetal brain of OG2^+/−/ROSA26^+/− transgenic mice (which contain an Oct4-GFP reporter) and expanded in monolayer under the same neural CDM condition as the above with 10 ng/ml of bFGF and EGF. Such cells truly from a non-pluripotent tissue would be devoid of concerns of any contaminating ES cell in the above screening system, which is highly unlikely with all appropriate controls. Similar culture conditions and reprogramming assays were performed using the OG2 neural progenitor cells except that puromycin was not used and green colonies were picked out and characterized by staining of Nanog, SSEA1 and ALP.\nmESC-derived or primary OG2 mouse neural progenitor cells were plated into Matrigel (1:50, BD Biosciences) coated 6-well plates at 3.5×10^4 cells/well in the neural progenitor cell expansion media. After one day these cells were transduced with retrovirus for overnight, and the medium was changed into the mESC growth media [DMEM, 5% FBS, 10% KSR, 1× non-essential amino acids (Gibco), 2 mM L-glutamine (Gibco), 0.1 mM β-mercaptoethanol (Gibco) and 10^3 unit/ml LIF (Chemicon)] with or without BIX01294 (0.5-1 μM). GFP-positive iPS cell colonies appeared after 9-14 days, and were picked out and expanded on MEF feeder cells with the mESC growth media."}, "mouse fibroblasts": {"test_system": "mouse fibroblasts", "experiment": "Reprogramming of mouse fibroblasts with exogenous poly-Arg transcription factor proteins", "format": "cell-based", "details": "cells incubated with transcription factor proteins plus agent", "protocol": "Mouse fibroblasts were grown in mESC medium supplemented with 8 μg/ml of either Oct4/Sox2/Klf4 or Oct4/Sox2/Klf4/Myc (all proteins comprising poly-Arg as described above) for 6-8 hours, washed, and incubated for 2-3 days in mESC media without the above-listed transcription factors. This (4-12 hours with, 1-3 days without) was repeated a number (1, 2, 3, 4, or more) of times and then the cells were cultured in mESC for two weeks.\nMouse fibroblasts were grown in mESC growth medium [Knockout DMEM (Invitrogen) supplemented with 10% ES-FBS+10% KSR, 0.1 mM 2-ME, 1% Glutamax, 1% Non-essential amino acids, 1% EmbryoMax ESC Qualified Nucleosides (Millipore), and 10^3 units/ml LIF (ESGRO, Chemicon International)] supplemented with 8 μg/ml of Oct4/Sox2/Klf4/Myc (all four transcription factors are tagged with poly-Arg […]; SEQ ID NO:2) for 4-12 hours, followed by culturing the cells in the absence of the Oct4/Sox2/Klf4/Myc polypeptides for one day. This procedure was repeated 4 times. The cells were then cultured in mESC medium for another two weeks. iPSC clones were detected by colony morphology and expression of pluripotency markers. An intermediate iPSC clone, which expresses ALP but not Oct4 (Oct4), was dissociated with Trypsin-EDTA. The clone was then expanded by continuous culturing with regular mESC medium or medium supplemented with 0.5 μM PD0325901, 3 μM CHIR99021, 0.5 μM A-83-01. The number of Oct4-positive colonies were counted 2 weeks after small molecule treatment (FIG. 14)."}, "[3]": {"test_system": "human primary fibroblasts (CRL2097 or BJ)", "experiment": "Reprogramming of human primary fibroblasts transduced with 4TFs", "format": "cell-based", "protocol": "We tested known inhibitors of the TGFβ receptor and MEK on 1×10^4 [Feng, B. et al., Cell Stem Cell 4, 301-12 (2009)] human primary fibroblasts (CRL2097 or BJ) that were retrovirally transduced with the 4TFs (Oct4, Klf4, Sox2 and c-Myc), for their effects on reprogramming kinetics and efficiency. On day 7 (D7) post-infection, the compounds were added, individually or in combinations, and the cultures were examined for iPSCs over the next 1-3 weeks.\nThe Slc7a1-expressing human fibroblast cells were seeded at 1×10^5 cells/well of a 6 well plate on the day 1. On day 2, 0.25 ml of each retroviral supernatant was added to the cells in the presence of 6 μg/ml polybrene. A second round of transduction was done on day 3. Infection efficiency was estimated by fluorescence microscopy on cells transduced in parallel with GFP or RFP gene-carrying retroviruses. Seven days after initial transduction, fibroblasts were harvested by trypsinization and re-plated at 1×10^4 cells/well of a 6 well plate coated with matrigel (1:50 dilution, cat 354234, BD Biosciences). For compound treatment, the cells were cultured in human reprogramming medium (DMEM/F12, 20% Knockout serum replacer, lx MEM Non-Essential amino acid, lx glutamax, 0.11 mM 2-Mercaptoethanol, 20 ng/ml bFGF and 1,000 U/ml LIF) and were treated with 2 μM SB431542 (Stemgent), 0.5 μM PD0325901 (Stemgent), or combinations of the compounds. The media were changed every 2-3 days depending on the cell density. Seven days after compound treatment, either the plates were fixed and stained for Alkaline phosphatase (ALP) activity, or stained for protein markers, or the cultures were continued with or without indicated splitting by trypsinization till day 30. For split cultures, the cells were split (1:4) and re-plated onto irradiated CF-1 MEF feeder layer (2.5×10^5 cells/well) in each well of 6 well plate and were split (1:10) again on day 21. The cells were maintained in the same media and compound cocktail described above except for the concentrations of PD0325901 (0.5 μM for D14 and 1 μM for D21) and SB431542 (0.5-1 μM after D14). The iPSC colonies were subsequently maintained in conventional hESC media in the absence of the above compounds.\nAlkaline phosphatase staining was performed using ALP detection kit (cat no: SCR004, Chemicon) according to the product instructions. For immunocytochemistry, cells were fixed in 4% paraformaldehyde (10 min, RT), washed twice with PBS, blocked using 5% normal donkey serum (Chemicon) and 0.1% TritonX-100 (15 min, RT) and then treated with primary antibodies overnight at 4° C. The primary antibodies used were anti-NANOG (cat no: AB9220, Chemicon, 1:1,000); anti-OCT4 (cat no: sc-5279, Santa Cruz biotech, 1:200), anti-SSEA 4 (cat no: mab4304, Chemicon, 1:500), anti-Tra-1-81 (cat 560123, BD Biosciences, 1:100), anti-Tra-1-81 (mAb 4381, Chemicon, 1:500), anti-βIII TUBULIN (cat no: MMS-435P, Covance Research Products Inc, 1:1000), anti-PDX 1 (1:500) (a kind gift from Dr. C. Wright), anti-BRACHYURY (cat No: AF2085, R & D, final concentration 0.2 μg/ml). The cells were washed twice with PBS and then treated with secondary antibodies for 1 hour at room temperature. The secondary antibodies used were Alexa fluor 488 donkey anti-rabbit or anti-mouse IgG (Invitrogen, 1:1,000) and Alexa fluor 555 donkey anti-rabbit or anti-mouse IgG (Invitrogen, 1:1,000). Nuclei were stained with 0.5 μg/ml DAPI (Sigma). Images were captured using a Nikon Eclipse TE2000-U/X-cite 120 EXFO microscope with a photometric CoolSnap HQ2 camera.\nWe tested the TGFβ receptor inhibitor (SB431542), MEK inhibitor (PD0325901) and GSK-3 inhibitor (CHIR99021), on human fibroblast crl2097 that were retrovirally transduced with Oct4, Klf4, Sox2 and c-Myc, for their effects on reprogramming kinetics and efficiency. Conditions are the same as set forth in Example 5. Data were collected 8 days after compound treatment."}},
  "data": [
    {"compound": "CCN(CC)CCCCNc1ncc2cc(-c3cc(OC)cc(OC)c3)c(NC(=O)NC(C)(C)C)nc2n1", "note": "[PD173074]", "values": [
      {"measurement": "hit in second synergist screen", "setting": "[1]", "result": "primary hits"}
    ]},
    {"compound": "O=C(NOC[C@H](O)CO)c1ccc(F)c(F)c1Nc1ccc(I)cc1F", "note": "[PD0325901]", "values": [
      {"measurement": "growth of non-iPS cells and iPS cells (selection)", "setting": "[2]", "result": "inhibits growth of non-iPS cells while it effectively promotes growth and stable reprogramming of iPS cells"},
      {"measurement": "efficiency and speed of development of pluripotent cells", "setting": "mouse fibroblasts", "result": "improved efficiency and speed of development of pluripotent cells"},
      {"measurement": "ALP+ colonies with hESC-like morphology (FIG. 7A)", "setting": "[3]; 4TFs transduced fibroblasts, 7 days after compound treatment, SB431542 at 2 μM", "result": "yielded none"},
      {"measurement": "colonies stained positive for SSEA4 and NANOG", "setting": "[3]; day 7 post-treatment (D14)", "result": "no NANOG^+ colonies were observed"}
    ]},
    {"compound": "O=C(O)C(Cc1c[nH]c2ccccc12)N1C(=O)c2ccccc2C1=O", "note": "(stereo not drawn) [RG108]", "values": [
      {"measurement": "reprogramming of OK transduced MEFs (second screen)", "setting": "[1]; in the presence of BIX", "result": "enhanced reprogramming of OK transduced MEFs in the presence of BIX"}
    ]},
    {"compound": "Cc1cc(Nc2ncc3c(n2)N(C)C(=O)N(c2cc(NC(=O)c4cccc(C(F)(F)F)c4)ccc2C)C3)n(C)n1", "note": "[pluripotin]", "values": [
      {"measurement": "hit in second synergist screen", "setting": "[1]", "result": "primary hits"}
    ]},
    {"compound": "c1nc2nc(Nc3ccc(N4CCOCC4)cc3)nc(NC3CCCCC3)c2[nH]1", "note": "[reversine]", "values": [
      {"measurement": "hit in second synergist screen", "setting": "[1]", "result": "primary hits"}
    ]},
    {"compound": "TGFβ", "values": [
      {"measurement": "effect on 4 factor-mediated reprogramming of fibroblasts", "setting": "[3]; addition of TGFβ", "result": "had an inhibitory effect on 4 factor-mediated reprogramming of fibroblasts"}
    ]}
  ]
}
